Assay results taken from patent US5672715A, “Herbicidal substituted 3-aryl-pyrazoles” (Monsanto Company, priority 1995, dated 1997).
Where “and” joins values, the source holds several entries; their conditions need not be identical. Identical values can stand only once.

Assays:
Type in all cases: in vivo
Barnyardgrass [1] = assay: post-emergence herbicide test; conditions: Echinochloa crus-galli, post-emergence, 0.25 lb/A; read-out: % plant inhibition
Source text: (§1) Topsoil was placed in aluminum pans having holes in the bottom and compacted to a depth of 1.3 to 1.6 cm from the top of the pan. A predetermined number of seeds of each of several dicotyledonous and monocotyledonous annual plant species and/or vegetative propagules for the perennial plant species were placed on the soil and pressed into the soil surface. The seeds and/or vegetative propagules were covered with soil and leveled. The pans were then placed on a bench in the greenhouse and watered either from overheard irrigation or by subirrigation as needed. After the plants reach the desired age (two to three weeks), each pan, is removed individually to a spraying chamber and sprayed by means of an atomizer, operating at a spray pressure of 170.3 kPa […] at the application rates noted. In the spray solution was an amount of an emulsifying agent mixture to give a spray solution or suspension which contains about 0.4% by volume of the emulsifier. The spray solution or suspension contained a sufficient amount of the candidate chemical in order to give application rates of the active ingredient corresponding to those shown in Tables 4 and 5, while applying a total amount of solution or suspension equivalent to 1870 L/Ha (200 gallons/acre). […] The post-emergent herbicidal activity shown in these tables is the percent inhibition of each plant species. Testing with warm season and cool season plants is shown in tables 4a-4d and […], respectively.

Cocklebur [2] = assay: post-emergence herbicide test; conditions: Xanthium strumarium, post-emergence, 0.25 lb/A; read-out: % plant inhibition
Source text: as §1

Morning Glory [3] = assay: post-emergence herbicide test; conditions: Ipomoea, post-emergence, 0.25 lb/A; read-out: % plant inhibition
Source text: as §1

Soybean [4] = assay: post-emergence herbicide test; conditions: Glycine max, post-emergence, 0.25 lb/A; read-out: % plant inhibition
Source text: as §1

Blackgrass [5] = assay: post-emergence herbicide test; conditions: Alopecurus myosuroides, post-emergence, 0.25 lb/A; read-out: % plant inhibition
Source text: as §1

Wheat [6] = assay: post-emergence herbicide test; conditions: Triticum aestivum, post-emergence, 0.25 lb/A; read-out: % plant inhibition
Source text: as §1

Downy Brome [7] = assay: post-emergence herbicide test; conditions: Bromus tectorum, post-emergence, 0.25 lb/A; read-out: % plant inhibition
Source text: as §1

Corn [8] = assay: post-emergence herbicide test; conditions: Zea mays, post-emergence, 0.25 lb/A; read-out: % plant inhibition
Source text: as §1

Birdseye Speedwell [9] = assay: post-emergence herbicide test; conditions: post-emergence, 0.25 lb/A; read-out: % plant inhibition
Source text: as §1

Common Chickweed [10] = assay: post-emergence herbicide test; conditions: post-emergence, 0.25 lb/A; read-out: % plant inhibition
Source text: as §1

Velvetleaf [11] = assay: post-emergence herbicide test; conditions: Abutilon theophrasti, post-emergence, 0.25 lb/A; read-out: % plant inhibition
Source text: as §1

Bedstraw Catchweed [12] = assay: post-emergence herbicide test; conditions: Galium aparine, post-emergence, 0.25 lb/A; read-out: % plant inhibition
Source text: as §1

Wild Oats [13] = assay: post-emergence herbicide test; conditions: Avena fatua, post-emergence, 0.25 lb/A; read-out: % plant inhibition
Source text: as §1

Green Foxtail [14] = assay: post-emergence herbicide test; conditions: Setaria viridis, post-emergence, 0.25 lb/A; read-out: % plant inhibition
Source text: as §1

Giant Foxtail [15] = assay: post-emergence herbicide test; conditions: Setaria faberi, post-emergence, 0.25 lb/A; read-out: % plant inhibition
Source text: as §1

Seedling Johnsongrass = assay: post-emergence herbicide test; conditions: Sorghum halepense, post-emergence, 0.25 lb/A; read-out: % plant inhibition
Source text: as §1

Rape [16] = assay: post-emergence herbicide test; conditions: post-emergence, 0.25 lb/A; read-out: % plant inhibition
Source text: as §1

Cocklebur [17] = assay: pre-emergence herbicide test; conditions: Xanthium strumarium, pre-emergence, 0.25 lb/A; read-out: % plant inhibition
Description: (§2) Topsoil was placed in an aluminum pan and compacted to a depth of 1.3 to 1.6 cm from the top of the pan. On the top of the soil was placed a predetermined number of seeds of each of several monocotyledonous and dicotyledonous annual plant species and/or vegetative propagules of various perennial plant species. The pan was then level filled with a cover layer of topsoil to which was added a known amount of active ingredient either prior to or after application of the cover layer. The active ingredient was dissolved or suspended in an organic solvent, e.g., acetone, or water as carrier for application to the cover layer. The pans were moved to a greenhouse bench where they were thereafter watered from below as needed to give adequate moisture for germination and growth. In some cases, an initial overhead irrigation of 1/4 inch of water was applied immediately after treatment.
(§3) Approximately 14 days after seeding and treating, the pans were observed and the results (% inhibition) were recorded.
(§4) The tables below summarize the results of the pre-emergence herbicidal activity tests of compounds of this invention tested with warm season plants (Tables 2a-2d) and cool season plants (Tables 3a and 3b). The herbicidal rating shown in these tables is the percent inhibition of each plant species. The plant species usually regarded as weeds are identified in the tables by single letter headings and crop species identified by two letter headings both headings being above the columns in accordance with the following legend: […]

Morning Glory [18] = assay: pre-emergence herbicide test; conditions: 0.25 lb/A; for inhibition at 280.212 g/ha: Ipomoea, pre-emergence, read-out: % plant inhibition
Description: as §2, §3, §4

Soybean [19] = assay: pre-emergence herbicide test; conditions: 0.25 lb/A
Description: as §2, §3, §4

Blackgrass [20] = assay: pre-emergence herbicide test; conditions: Alopecurus myosuroides, pre-emergence, 0.25 lb/A; read-out: % plant inhibition
Description: as §2, §3, §4

Wheat [21] = assay: pre-emergence herbicide test; conditions: Triticum aestivum, pre-emergence, 0.25 lb/A; read-out: % plant inhibition
Description: as §2, §3, §4

Downy Brome [22] = assay: pre-emergence herbicide test; conditions: Bromus tectorum, pre-emergence, 0.25 lb/A; read-out: % plant inhibition
Description: as §2, §3, §4

Corn [23] = assay: pre-emergence herbicide test; conditions: 0.25 lb/A; for inhibition at 280.212 g/ha: Zea mays, pre-emergence, read-out: % plant inhibition
Description: as §2, §3, §4

Birdseye Speedwell [24] = assay: pre-emergence herbicide test; conditions: pre-emergence, 0.25 lb/A; read-out: % plant inhibition
Description: as §2, §3, §4

Common Chickweed [25] = assay: pre-emergence herbicide test; conditions: pre-emergence, 0.25 lb/A; read-out: % plant inhibition
Description: as §2, §3, §4

Velvetleaf [26] = assay: pre-emergence herbicide test; conditions: Abutilon theophrasti, pre-emergence, 0.25 lb/A; read-out: % plant inhibition
Description: as §2, §3, §4

Bedstraw Catchweed [27] = assay: pre-emergence herbicide test; conditions: Galium aparine, pre-emergence, 0.25 lb/A; read-out: % plant inhibition
Description: as §2, §3, §4

Wild Oats [28] = assay: pre-emergence herbicide test; conditions: Avena fatua, pre-emergence, 0.25 lb/A; read-out: % plant inhibition
Description: as §2, §3, §4

Green Foxtail [29] = assay: pre-emergence herbicide test; conditions: Setaria viridis, pre-emergence; 0.25 lb/A; read-out: % plant inhibition
Description: as §2, §3, §4

Giant Foxtail [30] = assay: pre-emergence herbicide test; conditions: 0.25 lb/A; for inhibition at 280.212 g/ha: Setaria faberi, pre-emergence, read-out: % plant inhibition
Description: as §2, §3, §4

Rape [31] = assay: pre-emergence herbicide test; conditions: pre-emergence, 0.25 lb/A; read-out: % plant inhibition
Description: as §2, §3, §4

Barnyardgrass [32] = assay: pre-emergence herbicide test; conditions: Echinochloa crus-galli, pre-emergence, 0.25 lb/A; read-out: % plant inhibition
Description: as §2, §3, §4

`CCOC(=O)C(C)OC(=O)c1cc(-c2nn(C)c(C(F)(F)F)c2C)c(F)cc1Cl` (stereo not shown) [Compound 20] was tested, and the inhibition at 280.212 g/ha (Barnyardgrass [1]) was 85%, the inhibition at 280.212 g/ha (Cocklebur [2]) was 90% and the inhibition at 280.212 g/ha (Morning Glory [3]) was 98%. It also gave an inhibition at 280.212 g/ha (Soybean [4]) of 35%, an inhibition at 280.212 g/ha (Blackgrass [5]) of 35% and an inhibition at 280.212 g/ha (Wheat [6]) of 22%. It also gave an inhibition at 280.212 g/ha (Downy Brome [7]) of 40%, an inhibition at 280.212 g/ha (Corn [8]) of 8% and an inhibition at 280.212 g/ha (Birdseye Speedwell [9]) of 100%. The inhibition at 280.212 g/ha (Common Chickweed [10]) was 98%, the inhibition at 280.212 g/ha (Velvetleaf [11]) was 100% and the inhibition at 280.212 g/ha (Bedstraw Catchweed [12]) was 95%. It also gave an inhibition at 280.212 g/ha (Wild Oats [13]) of 45%, an inhibition at 280.212 g/ha (Green Foxtail [14]) of 25% and an inhibition at 280.212 g/ha (Giant Foxtail [15]) of 75%. The inhibition at 280.212 g/ha (Seedling Johnsongrass) was 80%, the inhibition at 280.212 g/ha (Rape [16]) was 25% and the inhibition at 280.212 g/ha (Cocklebur [17]) was 55%. The “% plant inhibition” value (Morning Glory [18]) was 70%, the inhibition at 280.212 g/ha (Morning Glory [18]) was 85% and the inhibition at 280.212 g/ha (Soybean [19]; Glycine max, pre-emergence, read-out: % plant inhibition) was 5%. It also gave an inhibition at 280.212 g/ha (Blackgrass [20]) of 70%, an inhibition at 280.212 g/ha (Wheat [21]) of 0% and an inhibition at 280.212 g/ha (Downy Brome [22]) of 65%. For the same compound, the “% plant inhibition” value (Corn [23]) was 10%, the inhibition at 280.212 g/ha (Corn [23]) was 15% and the inhibition at 280.212 g/ha (Birdseye Speedwell [24]) was 100%. The inhibition at 280.212 g/ha (Common Chickweed [25]) was 100%, the inhibition at 280.212 g/ha (Velvetleaf [26]) was 95% and the inhibition at 280.212 g/ha (Bedstraw Catchweed [27]) was 100%. The inhibition at 280.212 g/ha (Wild Oats [28]) was 25%, the inhibition at 280.212 g/ha (Green Foxtail [29]) was 100% and the “% plant inhibition” value (Giant Foxtail [30]) was 80%. The inhibition at 280.212 g/ha (Giant Foxtail [30]) was 98% and the inhibition at 280.212 g/ha (Rape [31]) was 95%.
`Cc1c(-c2cc(C(=O)O)c(Cl)cc2F)nn(C)c1C(F)(F)F` [Compound 2, 2-Chloro-5-[1,4-dimethyl-5-(trifluoromethyl)-1H-pyrazol-3-yl]-4-fluorobenzoic acid] gave an inhibition at 280.212 g/ha (Barnyardgrass [1]) of 15%, an inhibition at 280.212 g/ha (Cocklebur [2]) of 70% and an inhibition at 280.212 g/ha (Morning Glory [3]) of 45%. For the same compound, the inhibition at 280.212 g/ha (Soybean [4]) was 20%, the inhibition at 280.212 g/ha (Blackgrass [5]) was 10% and the inhibition at 280.212 g/ha (Wheat [6]) was 0%. It also gave an inhibition at 280.212 g/ha (Downy Brome [7]) of 0%, an inhibition at 280.212 g/ha (Corn [8]) of 3% and an inhibition at 280.212 g/ha (Birdseye Speedwell [9]) of 80%. It also gave an inhibition at 280.212 g/ha (Common Chickweed [10]) of 70%, an inhibition at 280.212 g/ha (Velvetleaf [11]) of 85% and an inhibition at 280.212 g/ha (Bedstraw Catchweed [12]) of 50%. The inhibition at 280.212 g/ha (Wild Oats [13]) was 0%, the inhibition at 280.212 g/ha (Green Foxtail [14]) was 15% and the inhibition at 280.212 g/ha (Giant Foxtail [15]) was 0%. The inhibition at 280.212 g/ha (Seedling Johnsongrass) was 20%, the inhibition at 280.212 g/ha (Rape [16]) was 0% and the inhibition at 280.212 g/ha (Barnyardgrass [32]) was 0%. For the same compound, the “% plant inhibition” value (Morning Glory [18]) was 30%, the inhibition at 280.212 g/ha (Morning Glory [18]) was 35% and the “% plant inhibition” value (Soybean [19]) was 5% and 0%. It also gave an inhibition at 280.212 g/ha (Blackgrass [20]) of 15%, an inhibition at 280.212 g/ha (Wheat [21]) of 7% and an inhibition at 280.212 g/ha (Downy Brome [22]) of 25%. The inhibition at 280.212 g/ha (Corn [23]) was 0%, the inhibition at 280.212 g/ha (Birdseye Speedwell [24]) was 55% and the inhibition at 280.212 g/ha (Common Chickweed [25]) was 60%. The inhibition at 280.212 g/ha (Bedstraw Catchweed [27]) was 50%, the inhibition at 280.212 g/ha (Wild Oats [28]) was 15% and the inhibition at 280.212 g/ha (Green Foxtail [29]) was 25%. The inhibition at 280.212 g/ha (Giant Foxtail [30]) was 0% and the inhibition at 280.212 g/ha (Rape [31]) was 20%.
